This note sets out measurements from ChEMBL document CHEMBL6182880, “TCM theory-inspired discovery of DNJ-flavonoid conjugates as broad-spectrum anti-SARS-CoV-2 agents by primarily targeting ER-associated glycoprotein folding process” (Eur J Med Chem, 2025).

pEC50: −log10 of the molar value.

Type in all cases: functional, organism-based
In assay [1] the test system is SARS-CoV-2. As to the kind of experiment: Antiviral activity against SARS CoV-2 pseudovirus transfected in HEK293 cells harboring pLenti-GFP-Luc assessed as inhibition of viral entry into HeLa-ACE2 cells treated for 12 hrs prior to media replacement and measured after 48 hrs by luciferase assay. Conditions: Severe acute respiratory syndrome coronavirus 2, HeLa-ACE2; call rule not given here.

Assay [2] relates to SARS-CoV-2. As to the kind of experiment: Antiviral activity against SARS CoV-2 pseudovirus transfected in HEK293 cells harboring pLenti-GFP-Luc assessed as inhibition of viral entry into HeLa-ACE2 cells incubated with cells for 1 to 2 hrs prior to viral infection and measured after 48 hrs by luciferase assay. Conditions: Severe acute respiratory syndrome coronavirus 2, HeLa-ACE2.

The test system of assay [3] is SARS-CoV-2. Nature of the assay: Antiviral activity against SARS CoV-2 pseudovirus transfected in HEK293 cells harboring pLenti-GFP-Luc assessed as inhibition of viral entry into HeLa-ACE2 cells treated 1 to 6 hrs post-infection and measured after 48 hrs by luciferase assay. To be noted: Severe acute respiratory syndrome coronavirus 2.
Assay [4] deals with SARS-CoV-2. Nature of the assay: Antiviral activity against SARS CoV-2 pseudovirus transfected in HEK293 cells harboring pLenti-GFP-Luc assessed as inhibition of viral packing process treated from 12 to 48 hrs post-transfection by luciferase assay. Conditions: Severe acute respiratory syndrome coronavirus 2, HeLa-ACE2.
Assay [5] deals with SARS-CoV-2. As to the kind of experiment: Antiviral activity against SARS CoV-2 pseudovirus transfected in HEK293 cells harboring pLenti-GFP-Luc assessed as inhibition of viral packing process by luciferase assay. Conditions: Severe acute respiratory syndrome coronavirus 2; HeLa-ACE2; time 48.0 hrs.

In general, pEC50 refers to the negative decadic logarithm of the EC50, by convention in mol/L. Regarding `O=c1cc(-c2ccc(O)c(O)c2)oc2cc(O)cc(OCCCCCCCCCCN3C[C@H](O)[C@@H](O)[C@H](O)[C@H]3CO)c12`, the negative-log EC50 (pEC50) in assay [1] is 5.29; in assay [2], 5.12; in assay [4] it was 5.12. Besides, the inhibition result is “Not active; Delay Of Time Of Addition Exerted A Time-Dependent Decrease In Viral Entry Inhibition” in assay [3] and “Time-dependent-effect” in assay [5].
